How the values were obtained:
[1] = biological target: T1, rabbit reticulocyte 20S proteasome, chymotrypsin-like (CT-L) activity (UniProt G1T4Q9); test: 20S proteasome chymotrypsin-like (CT-L) activity, Suc-LLVY-AMC hydrolysis; format: biochemical; settings: rabbit 20S proteasome, pH 8, 37° C.
T1 construct: IC50 on chymotrypsin-like activity; other: rabbit 20S proteasome, pH 8, 37° C; Rabbit erythrocyte 20S proteasome was obtained from Boston Biochem, Cambridge, USA
Experimental: (§1) Rabbit erythrocyte 20S proteasome was obtained from Boston Biochem, Cambridge, USA. The fluorogenic substrates Suc-LLVY-AMC, Boc-LRR-AMC and Z-LLE-βNA used to measure the proteasome activities CT-L, T-L and PA respectively were purchased from Bachem (France). Other reagents and solvents were purchased from commercial sources. Fluorescence was measured using a BMG Fluostar microplate reader.
(§2) Compounds 1-23 were tested for their potential to inhibit the CT-L, T-L and PA activities of the rabbit reticulocyte 20S proteasome. Enzyme activities were determined by monitoring the hydrolysis of the appropriate fluorogenic substrate (λexc=360, λem=465 nm for AMC substrates, and λexc=340, λem=405 nm for the βNA substrate) for 1 h at 37° C.
(§3) In the in vitro screening, each compound was tested in duplicate against the three activities, at 100 μM and 50 μM in the corresponding buffer. The buffer were (pH 8): 50 mM Tris, 150 mM NaCl, 10% (v/v) glycerol, 0.025% (w/v) SDS, and 3% (v/v) DMSO (CT-L and PA activities); 50 mM Tris, 150 mM NaCl, 10% (v/v) glycerol, and 3% (v/v) DMSO (T-L activity).
(§4) The inhibitory activity of compounds is expressed as IC50, which corresponds to the concentration of proteasome inhibitor leading to a loss of activity of 50%. The values of IC50 were calculated by fitting the experimental data to equation 1: % Inhibition=100×(1−Vi/V0)=100 [I]0/(IC50+[I]0), or equation 2: % Inhibition=100 [I]0^nH/(IC50^nH+[I]0^nH), where Vi is the initial rate in the presence of the inhibitor, V0 is the initial rate in the absence of the inhibitor, [I]0 is the inhibitor concentration, nH is the Hill number (FIG. 1).

[2] = biological target: rabbit reticulocyte 20S proteasome, post-acid (PA) activity (Oryctolagus cuniculus, UniProt G1T235); test: 20S proteasome post-acid (PA) activity, Z-LLE-βNA hydrolysis; format: biochemical; design: key to Inhibition of post-acid activity (NI): NI: No Inhibition; settings: rabbit 20S proteasome; for Inhibition of post-acid activity (NI): screened at 100 μM and 50 μM; for IC50: pH 8, 37° C.
rabbit reticulocyte 20S proteasome, post-acid (PA) activity, sequence (G1T235 entry or part of it): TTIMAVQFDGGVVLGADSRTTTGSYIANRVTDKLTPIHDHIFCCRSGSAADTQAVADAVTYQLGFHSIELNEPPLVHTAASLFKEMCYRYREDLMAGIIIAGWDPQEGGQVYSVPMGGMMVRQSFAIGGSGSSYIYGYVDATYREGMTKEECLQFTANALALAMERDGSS
Experimental: as §1, §2, §3, §4

human calpain-I = biological target: T2, human calpain-I (Homo sapiens, UniProt P07384); test: Selectivity: inhibition of calpain-I; format: biochemical; settings: 100 μM compound
T2 sequence (P07384 1-714): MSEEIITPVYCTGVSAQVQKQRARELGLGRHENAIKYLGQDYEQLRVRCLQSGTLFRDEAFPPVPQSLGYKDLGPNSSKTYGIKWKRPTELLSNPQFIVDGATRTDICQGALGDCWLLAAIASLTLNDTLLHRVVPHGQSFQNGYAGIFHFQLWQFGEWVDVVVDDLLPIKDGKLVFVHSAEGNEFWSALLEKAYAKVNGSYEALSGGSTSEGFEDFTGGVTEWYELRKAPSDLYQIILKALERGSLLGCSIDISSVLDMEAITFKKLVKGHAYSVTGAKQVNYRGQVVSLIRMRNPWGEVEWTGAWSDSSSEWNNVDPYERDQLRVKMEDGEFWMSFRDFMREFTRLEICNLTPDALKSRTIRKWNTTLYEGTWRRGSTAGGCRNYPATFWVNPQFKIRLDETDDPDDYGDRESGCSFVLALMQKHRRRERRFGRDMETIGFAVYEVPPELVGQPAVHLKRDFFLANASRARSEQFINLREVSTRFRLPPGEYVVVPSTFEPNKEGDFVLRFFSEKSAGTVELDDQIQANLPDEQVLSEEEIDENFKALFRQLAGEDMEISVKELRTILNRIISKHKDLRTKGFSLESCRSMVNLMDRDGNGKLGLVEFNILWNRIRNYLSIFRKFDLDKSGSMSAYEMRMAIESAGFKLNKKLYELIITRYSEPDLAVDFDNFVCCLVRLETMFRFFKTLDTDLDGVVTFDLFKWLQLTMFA
T2 sequence (P04632 1-268 partner): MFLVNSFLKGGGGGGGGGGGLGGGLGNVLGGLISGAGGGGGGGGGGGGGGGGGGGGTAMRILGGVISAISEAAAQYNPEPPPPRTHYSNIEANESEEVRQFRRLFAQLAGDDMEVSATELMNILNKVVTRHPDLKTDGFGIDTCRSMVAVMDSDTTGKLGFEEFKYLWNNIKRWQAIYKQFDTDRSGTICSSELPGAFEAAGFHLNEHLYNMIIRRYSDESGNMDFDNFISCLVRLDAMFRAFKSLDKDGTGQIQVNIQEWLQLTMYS

[3] = tested on: rabbit reticulocyte 20S proteasome, trypsin-like (T-L) activity; test: 20S proteasome trypsin-like (T-L) activity, Boc-LRR-AMC hydrolysis; format: biochemical; design: key to Inhibition of trypsin-like activity (NI): NI: No Inhibition; settings: rabbit 20S proteasome; for Inhibition of trypsin-like activity (NI): screened at 100 μM and 50 μM
Experimental: as §1, §2, §3, §4

[4] = biological target: T3, human erythrocyte 20S proteasome, chymotrypsin-like (CT-L) activity (Homo sapiens, UniProt P28074); test: 20S proteasome chymotrypsin-like (CT-L) activity, Suc-LLVY-AMC hydrolysis; format: biochemical; settings: for IC50: pH 7.5
T3 construct: three activities of human erythrocyte 20S proteasome; from tissue; host or cells: human erythrocytes
Experimental: as §1, §4
(§5) Compounds 24, 25 and 31-35 were tested in duplicate against three activities of human erythrocyte 20S proteasome at 100 and 50 μM in the appropriate buffer (pH 7.5): 20 mM Tris HCl, 10% (v/v) glycerol, 0.01% (w/v) SDS and 2% DMSO (CT-L and PA activities); 20 mM Tris HCl, 10% (v/v) glycerol, and 2% DMSO (T-L activity). The inhibitory activities were analyzed as described above for compounds 1-23.

[5] = biological target: T4, human erythrocyte 20S proteasome, post-acid (PA) activity (Homo sapiens, UniProt P28072); test: 20S proteasome post-acid (PA) activity, Z-LLE-βNA hydrolysis; format: biochemical; design: key: NI: No Inhibition; settings: screened at 100 and 50 μM
T4 construct: three activities of human erythrocyte 20S proteasome; from tissue; host or cells: human erythrocytes
Experimental: as §1, §4, §5

[6] = biological target: T5, human erythrocyte 20S proteasome, trypsin-like (T-L) activity (Homo sapiens, UniProt Q99436); test: 20S proteasome trypsin-like (T-L) activity, Boc-LRR-AMC hydrolysis; format: biochemical; design: key to Inhibition of trypsin-like activity (NI): NI: No Inhibition; settings: for IC50: pH 7.5; for inhibition at 100 µM: 100 μM inhibitor, read-out: % inhibition (inhibitor concentration) on trypsin-like activity
T5 construct: three activities of human erythrocyte 20S proteasome; from tissue; host or cells: human erythrocytes
Experimental: as §1, §4, §5

[7] = biological target: T6, rabbit reticulocyte 20S proteasome, chymotrypsin-like (CT-L) activity (Oryctolagus cuniculus, UniProt G1T4Q9); test: 20S proteasome chymotrypsin-like (CT-L) activity, Suc-LLVY-AMC hydrolysis; format: biochemical; settings: rabbit 20S proteasome, pH 8, 37° C.
T6 construct: IC50 on chymotrypsin-like activity; other: rabbit 20S proteasome, pH 8, 37° C; Rabbit erythrocyte 20S proteasome was obtained from Boston Biochem, Cambridge, USA
T6 sequence (G1T4Q9 1-263): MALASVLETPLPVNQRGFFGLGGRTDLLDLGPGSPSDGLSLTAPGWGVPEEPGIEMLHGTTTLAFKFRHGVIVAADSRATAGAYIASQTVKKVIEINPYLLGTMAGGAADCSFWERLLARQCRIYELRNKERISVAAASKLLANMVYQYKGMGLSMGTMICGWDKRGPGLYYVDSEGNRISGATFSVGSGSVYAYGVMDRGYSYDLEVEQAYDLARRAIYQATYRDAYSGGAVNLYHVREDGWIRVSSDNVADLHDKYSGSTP
Experimental: as §1, §2, §3, §4

Structure (SMILES) | IC50 [1] [µM] | Inhibition of post-acid activity (NI) [2] | Inhibition of trypsin-like activity (NI) [3] | also measured
COc1ccc(OCC(=O)N(Cc2nc(-c3ccccc3)no2)C(C)C)cc1 [Compound 6] | 1.02 ± 0.16 | NI | – | Inhibition of human calpain-I (in words) (human calpain-I): no inhibition
CC(C)c1noc(CN(C(=O)COc2ccc(Br)cc2)C(C)C)n1 [Compound 28] | 12.3 ± 0.3 | – | NI | IC50 [2]: 45 ± 1 µM
CCc1ccc(OCC(=O)N(Cc2nc(-c3ccc(OC)cc3)no2)C(C)C)cc1 [Compound 7] | 0.09 ± 0.006 | NI | NI | –
COc1ccc(-c2noc(CN(C(=O)COc3ccccc3)C(C)C)n2)cc1 [Compound 9] | 3.96 ± 0.75 | NI | NI | inhibition at 100 µM (human calpain-I): ≤ 30%
CC(C)N(Cc1nc(C(C)(C)C)no1)C(=O)COc1ccc(Br)cc1 [Compound 29] | 81 ± 4 | – | NI | IC50 [2]: 28 ± 3 µM
COc1ccc(OCC(=O)N(Cc2nc(-c3cccc(C)c3)no2)C(C)C)cc1 [Compound 5] | 0.91 ± 0.12 | NI | NI | –
COc1ccc(-c2noc(CN(C(=O)COc3ccc(Br)cc3)C(C)C)n2)cc1 [Compound 12] | 0.1 ± 0.01 | NI | NI | –
C=CCN(Cc1nc(-c2ccccc2)no1)C(=O)COc1ccc(C)cc1 [Compound 18] | 0.33 ± 0.03 | NI | NI | –
CC(C)N(Cc1nc(-c2cccc3ccccc23)no1)C(=O)COc1ccc(Br)cc1 [Compound 32] | – | – | – | inhibition at 100 µM ([4]; 100 μM inhibitor, read-out: % inhibition (inhibitor concentration) on chymotrypsin-like activity): 30%; Inhibition of post-acid activity (NI) [5]: NI; IC50 [6]: 29.1 ± 0.9 µM; melting point: 114 °C
CCOc1ccc(C(=O)N(Cc2nc(-c3ccc(OC)cc3)no2)C(C)C)cc1 [Compound 20] | – | NI | – | IC50 [7]: ~18 µM; Activation × of trypsin-like activity ([3]; 50 μM compound, fold activation): Activation × 3.4 (50 μM)
CCc1ccc(OCC(=O)N(Cc2nc(-c3cccc(C)c3)no2)C(C)C)cc1 [Compound 3] | 0.17 ± 0.01 | NI | NI | –
Cc1noc(CN(C(=O)COc2ccc(Br)cc2)C(C)C)n1 [Compound 27] | 12.3 ± 0.3 | – | NI | IC50 [2]: 76 ± 2 µM
CC(C)N(Cc1nc(CN2CCCCC2)no1)C(=O)COc1ccc(Br)cc1 [Compound 35] | – | – | – | IC50 [4]: 37.3 ± 4.2 µM; Inhibition of post-acid activity (NI) [5]: NI; inhibition at 100 µM [6]: 47%; melting point: 144 °C
COc1ccc(OCC(=O)N(Cc2nc(-c3ccc(C)cc3)no2)C(C)C)cc1 [Compound 16] | 2.49 ± 0.91 | NI | NI | Inhibition of human calpain-I (in words) (human calpain-I): no inhibition
COc1ccc(-c2noc(CN(C(=O)COc3ccc(Br)cc3)C(C)C)n2)cc1OC [Compound 25] | – | – | – | IC50 [4]: 0.037 ± 0.003 µM; Inhibition of post-acid activity (NI) [5]: NI; Inhibition of trypsin-like activity (NI) ([6]; screened at 100 and 50 μM): NI; melting point: 135 °C
CCN(CC)Cc1noc(CN(C(=O)COc2ccc(Br)cc2)C(C)C)n1 [Compound 34] | – | – | – | IC50 [4]: 30.9 ± 2.3 µM; Inhibition of post-acid activity (NI) [5]: NI; inhibition at 100 µM [6]: 28%; melting point: 168 °C
C=CCN(Cc1nc(-c2ccc(OC)cc2)no1)C(=O)COc1ccccc1 [Compound 8] | 1.66 ± 0.12 | NI | NI | inhibition at 100 µM (human calpain-I): ≤ 30%
CC(C)N(Cc1nc(CN2CCOCC2)no1)C(=O)COc1ccc(Br)cc1 [Compound 33] | – | – | – | IC50 [4]: 78.6 ± 1.6 µM; Inhibition of post-acid activity (NI) [5]: NI; inhibition at 100 µM [6]: 42%; melting point: 110 °C
COc1ccc(-c2noc(CN(C(=O)C(C)Oc3ccccc3)C(C)C)n2)cc1 (stereo not drawn) [Compound 14] | 8.05 ± 0.83 | NI | NI | –
COc1ccc(C(=O)NCCc2nnc(SCC(=O)Nc3cc(C)ccc3OC)n2C)cc1 [Compound 22] | – | – | – | IC50 [7]: 80 µM; inhibition at 100 µM ([2]; 100 μM inhibitor, read-out: % inhibition (inhibitor concentration) on post-acid activity): 16%; % inhibition (inhibitor concentration) on trypsin-like activity ([3]; 100 μM inhibitor): 22% (100 μM)
Cc1cccc(-c2noc(CN(C(=O)COc3ccc(Br)cc3)C(C)C)n2)c1 [Compound 4] | 0.51 ± 0.07 | NI | – | % inhibition (inhibitor concentration) on trypsin-like activity ([3]; 50 μM inhibitor): 7.3%
COc1ccc(-c2noc(CN(C(=O)COc3ccc(C)cc3)C(C)C)n2)cc1 [Compound 10] | 0.71 ± 0.04 | NI | NI | –
CC(C)N(Cc1nc(-c2ccc(Oc3ccccc3)cc2)no1)C(=O)COc1ccc(Br)cc1 [Compound 24] | – | – | – | IC50 [4]: 0.61 ± 0.03 µM; Inhibition of post-acid activity (NI) [5]: NI; IC50 [6]: 10.8 ± 0.4 µM; melting point: 87 °C
Cc1cccc(OCC(=O)N(Cc2nc(-c3cccc(C)c3)no2)C(C)C)c1 [Compound 15] | ~27 | NI | NI | –
COc1ccc(Cl)cc1NC(=O)CSc1nnc(C(CO)NC(=O)c2ccccc2)n1C (stereo not drawn) [Compound 23] | – | NI | – | IC50 [7]: 85 µM; % inhibition (inhibitor concentration) on trypsin-like activity ([3]; 100 μM inhibitor): 50% (100 μM)
